Values quoted from earlier work as cited in patent publication US9839609B2 (priority 2009, dated 2017).

Legend:
[1] = in vivo
[2] = chronic administration
[3] = oral, rats

fraction of DMSO metabolized into MSM in the body [1] | Structure (SMILES) | dose chronically administered without any serious adverse effects [2] | LD50 [3]
Approximately 17% | C[S+](C)[O-] [DMSO, Dimethyl sulfoxide] | 5 g/kg daily | –
– | CS(C)(=O)=O [MSM, Methylsulfonylmethane] | – | approximately 17 g/kg
